Converted amounts (≈) assume the structure as drawn. The source made the active and inactive calls. The rule behind the calls is not given here.
Tests used:
Escherichia coli [1] = experiment: Antimicrobial activity against Escherichia coli ATCC 25922 at 20 ug per disk after 18 to 24 hrs by agar diffusion assay; assay type: functional; details: read-out: DIZ
Mycobacterium marinum = experiment: Antimycobacterial activity against Mycobacterium marinum CIP 6423 after 7 days by resazurin microtiter assay; assay type: functional; details: CIP 6423, 168 h
[2] = test system: Mycobacterium scrofulaceum; experiment: Antimycobacterial activity against Mycobacterium scrofulaceum NCTC 10803 after 7 days by resazurin microtiter assay; assay type: functional; details: 168 h
[3] = biological target: T1, Sterol 14alpha-demethylase (Mycobacterium tuberculosis) (UniProt P9WPP9); experiment: Binding affinity to N-terminal His-tagged Mycobacterium tuberculosis H37Rv ATCC 25618 CYP51 expressed in Escherichia coli Rosetta (DE3) by spectrophotometric analysis
T1 sequence (whole entry): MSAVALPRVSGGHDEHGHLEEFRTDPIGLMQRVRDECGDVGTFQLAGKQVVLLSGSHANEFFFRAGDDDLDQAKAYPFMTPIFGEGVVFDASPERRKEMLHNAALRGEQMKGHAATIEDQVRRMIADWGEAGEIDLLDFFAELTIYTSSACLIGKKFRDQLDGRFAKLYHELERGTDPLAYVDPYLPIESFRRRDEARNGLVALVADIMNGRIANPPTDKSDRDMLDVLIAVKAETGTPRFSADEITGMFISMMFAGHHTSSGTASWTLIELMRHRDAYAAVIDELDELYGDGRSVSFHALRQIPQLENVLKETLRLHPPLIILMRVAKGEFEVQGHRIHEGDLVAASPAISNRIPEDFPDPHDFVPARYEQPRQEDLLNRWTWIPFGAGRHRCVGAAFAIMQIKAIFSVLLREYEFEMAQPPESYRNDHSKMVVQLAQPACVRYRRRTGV

[4] = test system: Mycobacterium tuberculosis; experiment: Antimycobacterial activity against Mycobacterium tuberculosis H37Ra […] after 7 days by resazurin microtiter assay; assay type: functional; details: 168 h
Mycobacterium avium = experiment: Antimycobacterial activity against Mycobacterium avium NCTC 08559 after 7 days by resazurin microtiter assay; assay type: functional; details: NCTC 08559, 168 h
[5] = Cytotoxicity against African green monkey Vero cells after 72 hrs by MTT assay; assay type: cell-based; details: chlorocebus sabaeus
Mycobacterium kansasii = experiment: Antimycobacterial activity against Mycobacterium kansasii NCTC 10268 after 7 days by resazurin microtiter assay; assay type: functional; details: NCTC 10268, 168 h
Candida albicans [6] = experiment: Antimicrobial activity against Candida albicans 685 clinical isolate at 20 ug per disk after 18 to 24 hrs by agar diffusion assay; assay type: functional; details: read-out: DIZ
Mycobacterium gordonae = experiment: Antimycobacterial activity against Mycobacterium gordonae NCTC 10267 after 7 days by resazurin microtiter assay; assay type: functional; details: NCTC 10267, 168 h
[7] = test system: Mycobacterium intracellulare; experiment: Antimycobacterial activity against Mycobacterium intracellulare NCTC 10425 after 7 days by resazurin microtiter assay; assay type: functional; details: NCTC 10425, 168 h
Staphylococcus aureus [8] = experiment: Antimicrobial activity against Staphylococcus aureus ATCC 25923 at 20 ug per disk after 18 to 24 hrs by agar diffusion assay; assay type: functional; details: read-out: DIZ
[9] = Selectivity index, ratio of CC50 for African green monkey Vero cells to MIC for Mycobacterium tuberculosis H37Ra […]; assay type: toxicity, cell-based; details: read-out: Selectivity Index
Candida albicans [10] = experiment: Antimicrobial activity against Candida albicans 685 clinical isolate at 5 ug per disk after 18 to 24 hrs by agar diffusion assay; assay type: functional; details: read-out: DIZ
Staphylococcus aureus [11] = experiment: Antimicrobial activity against Staphylococcus aureus ATCC 25923 at 30 ug per disk after 18 to 24 hrs by agar diffusion assay; assay type: functional; details: read-out: DIZ
Escherichia coli [12] = experiment: Antimicrobial activity against Escherichia coli ATCC 25922 at 30 ug per disk after 18 to 24 hrs by agar diffusion assay; assay type: functional; details: read-out: DIZ

SMILES | zone of inhibition at 20 µg/disc (Escherichia coli [1]) [mm] | MIC (Mycobacterium marinum) [µM] | MIC [2] [µM] | Activity [3] | MIC [4] [µM] | MIC (Mycobacterium avium) [µM] | CC50 at 72 h [5] [µM] | MIC (Mycobacterium kansasii) [µM] | zone of inhibition at 20 µg/disc (Candida albicans [6]) [mm] | MIC (Mycobacterium gordonae) [µM] | MIC [7] [µM] | zone of inhibition at 20 µg/disc (Staphylococcus aureus [8]) [mm] | selectivity ratio [9] | zone of inhibition at 5 µg/disc (Candida albicans [10]) [mm] | zone of inhibition at 30 µg/disc (Staphylococcus aureus [11]) [mm] | zone of inhibition at 30 µg/disc (Escherichia coli [12]) [mm]
N/C(=N/NC(CC(=O)c1ccc(-n2ccnc2)cc1)c1ccccc1[N+](=O)[O-])c1ccccn1 (stereo not given) | 6 | 35.1 (≈ 16 µg/mL) | 8.8 (≈ 4.01 µg/mL) | inactive | 8.8 (≈ 4.01 µg/mL) | 70.3 (≈ 32 µg/mL) | 48 | 17.6 (≈ 8.02 µg/mL) | 4 | 8.8 (≈ 4.01 µg/mL) | 140 (≈ 63.8 µg/mL) | 13 |  |  |  | 
N/C(=N/NC(CC(=O)c1ccc(-n2ccnc2)cc1)c1ccc(Br)cc1)c1ccccn1 (stereo not given) | 6 | 8.2 (≈ 4.01 µg/mL) | 16.3 (≈ 7.98 µg/mL) | inactive | 16.3 (≈ 7.98 µg/mL) | 131 (≈ 64.1 µg/mL) | 298 | 4.1 (≈ 2.01 µg/mL) | 8 | 2 (≈ 0.979 µg/mL) | 131 (≈ 64.1 µg/mL) | 20 | 18 |  |  | 
N/C(=N/NC(CC(=O)c1ccc(-n2ccnc2)cc1)c1ccccc1)c1ccccn1 (stereo not given) | 7 | 19.5 (≈ 8 µg/mL) | 19.5 (≈ 8 µg/mL) | inactive | 19.5 (≈ 8 µg/mL) | 78 (≈ 32 µg/mL) | 63.5 | 19.5 (≈ 8 µg/mL) | 5 | 9.7 (≈ 3.98 µg/mL) | 78 (≈ 32 µg/mL) | 14 |  |  |  | 
NNC(=O)c1ccncc1 [ISONIAZID] |  | 116 (≈ 15.9 µg/mL) | 116 (≈ 15.9 µg/mL) |  | 0.9 (≈ 0.123 µg/mL) | 116 (≈ 15.9 µg/mL) | > 7000 |  |  | 116 (≈ 15.9 µg/mL) | > 467 |  |  |  |  | 
N/C(=N/NC(CC(=O)c1ccc(-n2ccnc2)cc1)c1ccc(F)cc1)c1ccccn1 (stereo not given) | 6 | 18.7 (≈ 8.01 µg/mL) | 18.7 (≈ 8.01 µg/mL) | inactive | 9.3 (≈ 3.98 µg/mL) | 74.7 (≈ 32 µg/mL) | 78.8 | 9.3 (≈ 3.98 µg/mL) | 6 | 18.7 (≈ 8.01 µg/mL) | 74.7 (≈ 32 µg/mL) | 20 |  |  |  | 
N/C(=N/NC(CC(=O)c1ccc(-n2ccnc2)cc1)c1ccccc1F)c1ccccn1 (stereo not given) | 7 | 18.7 (≈ 8.01 µg/mL) | 18.7 (≈ 8.01 µg/mL) | inactive | 17.6 (≈ 7.54 µg/mL) | 74.7 (≈ 32 µg/mL) | 62.1 | 18.7 (≈ 8.01 µg/mL) | 5 | 4.7 (≈ 2.01 µg/mL) | 74.7 (≈ 32 µg/mL) | 14 |  |  |  | 
N/C(=N/NC(CC(=O)c1ccc(-n2ccnc2)cc1)c1ccc(Cl)cc1Cl)c1ccccn1 (stereo not given) | 6 | 33.3 (≈ 16 µg/mL) | 16.7 (≈ 8.01 µg/mL) | inactive | 9 (≈ 4.31 µg/mL) | 33.3 (≈ 16 µg/mL) | 27.8 | 4.2 (≈ 2.01 µg/mL) | 8 | 9 (≈ 4.31 µg/mL) | 33.3 (≈ 16 µg/mL) | 17 |  |  |  | 
N/C(=N/NC(CC(=O)c1ccc(-n2ccnc2)cc1)c1cccc(Br)c1)c1ccccn1 (stereo not given) | 8 | 16.3 (≈ 7.98 µg/mL) | 32.7 (≈ 16 µg/mL) | inactive | 16.3 (≈ 7.98 µg/mL) | 131 (≈ 64.1 µg/mL) | 51.3 | 16.3 (≈ 7.98 µg/mL) | 13 | 2 (≈ 0.979 µg/mL) | 131 (≈ 64.1 µg/mL) | 19 |  |  |  | 
N/C(=N/NC(CC(=O)c1ccc(-n2ccnc2)cc1)c1ccccc1Cl)c1ccccn1 (stereo not given) | 6 | 18 (≈ 8.01 µg/mL) | 18 (≈ 8.01 µg/mL) | inactive | 36 (≈ 16 µg/mL) | 72 (≈ 32 µg/mL) | 53.2 | 18 (≈ 8.01 µg/mL) | 7 | 18 (≈ 8.01 µg/mL) | 144 (≈ 64.1 µg/mL) | 20 |  |  |  | 
N/C(=N/NC(CC(=O)c1ccc(-n2ccnc2)cc1)c1ccc([N+](=O)[O-])cc1)c1ccccn1 (stereo not given) | 5 | 35.1 (≈ 16 µg/mL) | 8.8 (≈ 4.01 µg/mL) | inactive | 4.4 (≈ 2 µg/mL) | 140 (≈ 63.8 µg/mL) | 23.1 | 35.1 (≈ 16 µg/mL) | 5 | 8.8 (≈ 4.01 µg/mL) | > 140 | 13 |  |  |  | 
N/C(=N/NC(CC(=O)c1ccc(-n2ccnc2)cc1)c1ccccc1Br)c1ccccn1 (stereo not given) | 5 | 16.3 (≈ 7.98 µg/mL) | 16.3 (≈ 7.98 µg/mL) | inactive | 32.7 (≈ 16 µg/mL) | 65.4 (≈ 32 µg/mL) | 29 | 16.3 (≈ 7.98 µg/mL) | 8 | 8.2 (≈ 4.01 µg/mL) | 131 (≈ 64.1 µg/mL) | 19 |  |  |  | 
Clc1ccc(COC(Cn2ccnc2)c2ccc(Cl)cc2Cl)cc1 (stereo not given) |  |  |  | Active |  |  |  |  |  |  |  |  |  |  |  | 
N/C(=N/NC(CC(=O)c1ccc(-n2ccnc2)cc1)c1cccc(F)c1)c1ccccn1 (stereo not given) | 7 | 18.7 (≈ 8.01 µg/mL) | 9.3 (≈ 3.98 µg/mL) | inactive | 4.7 (≈ 2.01 µg/mL) | 74.7 (≈ 32 µg/mL) | 26.5 | 9.3 (≈ 3.98 µg/mL) | 11 | 2.3 (≈ 0.985 µg/mL) | 74.7 (≈ 32 µg/mL) | 16 |  |  |  | 
C[C@@H]1[C@H](O)[C@@H](C)/C=C/C=C/C=C/C=C/C=C/C=C/C=C/[C@H](O[C@@H]2O[C@H](C)[C@@H](O)[C@H](N)[C@@H]2O)C[C@@H]2O[C@](O)(C[C@@H](O)C[C@@H](O)[C@H](O)CC[C@@H](O)C[C@@H](O)CC(=O)O[C@H]1C)C[C@H](O)[C@H]2C(=O)O [AMPHOTERICIN B] |  |  |  |  |  |  |  |  |  |  |  |  |  | 16 |  | 
N/C(=N/NC(CC(=O)c1ccc(-n2ccnc2)cc1)c1ccc(Cl)cc1)c1ccccn1 (stereo not given) | 8 | 18 (≈ 8.01 µg/mL) | 18 (≈ 8.01 µg/mL) | inactive | 9 (≈ 4 µg/mL) | 72 (≈ 32 µg/mL) | 78.8 | 9 (≈ 4 µg/mL) | 9 | 4.5 (≈ 2 µg/mL) | 72 (≈ 32 µg/mL) | 20 |  |  |  | 
N/C(=N/NC(CC(=O)c1ccc(-n2ccnc2)cc1)c1cccc([N+](=O)[O-])c1)c1ccccn1 (stereo not given) | 5 | 35.1 (≈ 16 µg/mL) | 8.8 (≈ 4.01 µg/mL) | inactive | 4.4 (≈ 2 µg/mL) | 140 (≈ 63.8 µg/mL) | 28.7 | 8.8 (≈ 4.01 µg/mL) | 10 | 8.8 (≈ 4.01 µg/mL) | > 140 | 13 |  |  |  | 
CC(=O)OCC1=C(C(=O)O)N2C(=O)[C@@H](NC(=O)Cc3cccs3)[C@H]2SC1 [CEPHALOTHIN] |  |  |  |  |  |  |  |  |  |  |  |  |  |  | 31 | 11
N/C(=N/NC(CC(=O)c1ccc(-n2ccnc2)cc1)c1cccc(Cl)c1)c1ccccn1 (stereo not given) | 7 | 18 (≈ 8.01 µg/mL) | 18 (≈ 8.01 µg/mL) | inactive | 18 (≈ 8.01 µg/mL) | 72 (≈ 32 µg/mL) | 68.6 | 9 (≈ 4 µg/mL) | 11 | 4.5 (≈ 2 µg/mL) | 72 (≈ 32 µg/mL) | 22 |  |  |  | 

From ChEMBL document CHEMBL3817752, “Antimycobacterial activity of new N(1)-[1-[1-aryl-3-[4-(1H-imidazol-1-yl)phenyl]-3-oxo]propyl]-pyridine-2-carboxamidrazone derivatives” (Bioorg Med Chem Lett, 2016)
